Assay results published in patent US20220338477A1, “MYCOBACTERIUM BACTERICIDE” (SANKEI CO., LTD., priority 2019, published 2022).

Legend:
[1] = system: other mycobacteria (JCM135429, JCM135430, JCM135431, JCM135432, JCM6387, JCM6390, JCM13569); experiment: Disinfecting effect on other mycobacteria; type: cell-based
Procedure: (§1) As a measuring method of free chlorine (as Cl), a buffer and a DPD indicator are added to a sample and a wavelength of 510 nm is measured with an absorption spectrophotometer, and for measurement of free chlorine (as Cl) in the presence of an organic matter, measurement is taken at a wavelength of 655 nm using a TMB reagent to find the concentration from the measurement values. Further, a method of conducting a test for studying the disinfecting effect prepares free chlorine (as Cl) of a test agent by a DPD method, contacts each agent with an organic matter-containing bacterial solution, neutralizes the solution with sodium thiosulfate after a certain period of time has passed, and checks the viable bacteria count of the neutral solution.
Additional studies were conducted to find whether a disinfecting effect is observed on other mycobacteria. In the absence of organic matters, an effect of chlorous acid aqueous solutions was also observed on other mycobacteria at free chlorine of 50 ppm or greater, whereas an effect was not observed from sodium hypochlorite at 200 ppm (FIG. 7). The same results as the results for M. intracellulare were obtained.

[2] = system: chromosomal DNA of M. intracellulare; experiment: Pulsed-field gel electrophoresis of chromosomal DNA after disinfection of M. intracellulare; type: cell-based, Mycobacterium intracellulare; conditions: compared with water
Text: In order to study the disinfection mechanism of chlorous acid aqueous solutions, with the understanding that a chlorous acid aqueous solution is unlikely to disinfect by acting on the bacterial surface in view of the results of SEM, chromosomal DNA was extracted from bacteria after disinfection, and the state of the chromosomal DNA was examined through pulsed-field gel electrophoresis in order to study the effect of a chlorous acid aqueous solution on chromosomal DNA of bacteria.

M. intracellulare = experiment: Test for studying disinfecting effect of chlorous acid aqueous solution and sodium hypochlorite on M. intracellulare; type: cell-based, Mycobacterium intracellulare; conditions: for free chlorine concentration (as Cl) at which a disinfecting effect (reducing the bacteria count 4 log or greater) is exhibited: contact time 1 min
Procedure: as §1
For the “chlorous acid aqueous solution formulation manufactured with chlorous acid aqueous solution” prepared based on the preparation method described above, the concentration of “chlorous acid aqueous solution” was measured based on the “Quantification method of chlorous acid aqueous solution” described above, and buffer prepared to achieve the free chlorine concentration described in each Example (phosphate buffer comprising dipotassium hydrogen phosphate and potassium dihydrogen phosphate) was used to prepare the chlorous acid aqueous solution of each Example.
The disinfecting effects of chlorous acid aqueous solutions and sodium hypochlorite on M. intracellulare were studied in the absence of an organic matter and in the presence of an organic matter, i.e., 0.5% bovine serum albumin (hereinafter, BSA) (FIG. 1). If an effect of reducing the bacteria count is 4 log or greater, the agent is considered as having a disinfecting effect.

What does the source list for OCl [sodium hypochlorite]?
free chlorine at which a disinfecting effect was observed ([1]; absence of organic matters (FIG. 7)): > 200 ppm; free chlorine at which a disinfecting effect was observed ([1]; presence of 0.5% BSA (FIG. 8)): > 1000 ppm; state of chromosomal DNA band in pulsed-field gel electrophoresis [2]: a band is formed at the same position as water; disinfecting effect (FIG. 1) (M. intracellulare; absence and presence of organic matter (0.5% BSA)): not found; free chlorine concentration (as Cl) at which a disinfecting effect (reducing the bacteria count 4 log or greater) is exhibited (M. intracellulare; absence of an organic matter): > 200 ppm; free chlorine concentration (as Cl) at which a disinfecting effect (reducing the bacteria count 4 log or greater) is exhibited (M. intracellulare; presence of an organic matter (0.5% BSA)): > 1000 ppm
